The results in this text go back to PMC4342272 (Journal of the American Chemical Society, 2015).

The experiment has as its target c-Abl (Homo sapiens, UniProt P00519). Briefly: Dose-response inhibition assay, AbAStide time-resolved Tb3+ luminescence. It counts as biochemical.

The structures appear in SMILES notation.

Chain of c-Abl (P00519 whole entry): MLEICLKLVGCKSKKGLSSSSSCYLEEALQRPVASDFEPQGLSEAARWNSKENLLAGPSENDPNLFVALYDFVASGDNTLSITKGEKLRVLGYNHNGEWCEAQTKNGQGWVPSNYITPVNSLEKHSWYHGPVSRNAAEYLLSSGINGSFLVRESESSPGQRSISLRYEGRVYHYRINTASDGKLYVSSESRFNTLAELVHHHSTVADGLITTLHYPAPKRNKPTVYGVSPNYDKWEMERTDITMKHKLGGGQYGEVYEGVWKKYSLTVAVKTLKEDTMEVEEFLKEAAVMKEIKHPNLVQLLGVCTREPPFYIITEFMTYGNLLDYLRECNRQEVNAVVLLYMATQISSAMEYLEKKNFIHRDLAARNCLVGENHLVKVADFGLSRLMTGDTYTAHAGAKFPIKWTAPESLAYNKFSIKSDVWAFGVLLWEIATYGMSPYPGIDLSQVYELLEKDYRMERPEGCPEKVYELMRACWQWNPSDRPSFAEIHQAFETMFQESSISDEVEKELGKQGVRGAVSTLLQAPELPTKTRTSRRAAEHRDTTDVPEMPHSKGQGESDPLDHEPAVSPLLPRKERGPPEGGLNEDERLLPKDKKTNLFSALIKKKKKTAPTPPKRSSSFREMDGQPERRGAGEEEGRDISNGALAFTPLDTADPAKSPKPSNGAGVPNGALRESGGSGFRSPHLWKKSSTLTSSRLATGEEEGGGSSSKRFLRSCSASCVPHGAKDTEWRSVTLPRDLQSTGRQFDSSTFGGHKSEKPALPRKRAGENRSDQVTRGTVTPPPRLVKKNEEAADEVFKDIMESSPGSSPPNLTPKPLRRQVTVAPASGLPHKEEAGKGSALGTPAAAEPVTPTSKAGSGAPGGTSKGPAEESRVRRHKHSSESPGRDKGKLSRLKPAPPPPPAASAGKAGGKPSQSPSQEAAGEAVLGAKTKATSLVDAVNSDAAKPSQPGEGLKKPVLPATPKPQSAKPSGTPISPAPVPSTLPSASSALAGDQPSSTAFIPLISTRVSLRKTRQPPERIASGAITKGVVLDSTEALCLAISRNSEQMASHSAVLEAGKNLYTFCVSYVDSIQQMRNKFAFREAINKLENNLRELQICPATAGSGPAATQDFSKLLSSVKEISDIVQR

The term IC50 denotes the concentration at which inhibition is half-maximal. The molecule `COc1cc(C=NNc2ncnc3c2cnn3-c2ccccc2)ccc1O` [GW513184X] registered an IC50 of 0.35 nM.

Consider `COC(=O)Nc1nc2ccc(Sc3ccc(NC(=O)Nc4cc(C(F)(F)F)ccc4F)cc3)cc2[nH]1` [GW607049C], for which the “inhibition of Abl in dose-response kinase assay” value (AbAStide biosensor, negative compounds from HTS) is reported as “no inhibition”.

Molecule `COC(=O)Nc1nc2ccc(Oc3ccc(NC(=O)Nc4cc(C(F)(F)F)ccc4F)cc3)cc2s1` [GW693917A] came in with an IC50 of 0.52 nM.

The molecule `c1ccc(-c2n[nH]cc2-c2ccnc(-c3ccc(OCCn4ccnc4)cc3)c2)nc1` [GW711782X] displayed an IC50 of 1.91 nM.
